Measured values from patent US20260069534A1, “ORAL DELIVERY OF ACTIVE COMPOUNDS FOR TREATING GLYCOGEN STORAGE DISEASES” (LYOTROPIC DELIVERY SYSTEMS LTD., priority 2022, published 2026).

What was measured:
[1] = Pharmacokinetic profile in APBD modeling mice, IV 250 mg/kg; settings: in vivo
Procedure: FIGS. 9A-9C are pharmacokinetic profiles of Compound GHF-201 administered per os in formulation LDS-C to APBD patient 1 (FIG. 9A) and IV at 250 mg/kg to n=3 APBD modeling mice (FIG. 9B). Active ingredient doses in days 1, 2, and 3 were 170 mg, 255 mg, and 340 mg, respectively. Encircled in A, values blown up in FIG. 9C.
(§1) Compound GHF-201 was administered to APBD modeling mice as a 5% DMSO solution, IV injected twice a week at a dose of 250 mg/kg, equivalent to a daily dose of 70 mg/kg. Daily injection was avoided due to the relatively long duration of treatment (6 months), which might have led to excessive scarring. Following positive results in the murine model, compound GHF-201 was administered to two APBD patients as a part of a 3-day oral dose escalation study, during which clinical safety and pharmacokinetic profiles were determined.
Following the FDA human equivalent dose calculation, mouse dose can be converted to human dose by dividing by 12. […] Divided by 12, 4,700 ng/mL yields 392 ng/mL. […] Therefore, it was assumed that a human equivalent, or higher, dose in patients is at least as effective as the equivalent dose in mice.

[2] = Tissue penetration / distribution in APBD model mice (LC-MS/MS); format: in vivo
Procedure: FIGS. 8A-8B show tissue penetration test results in APBD model mice for Compound GHF-201 in non-formulated form (FIG. 8A) and formulated in LDS-C formulation (FIG. 8B). For pharmacokinetic analysis, 100 μl serum as well as brain, kidney, hind limb quad muscle, heart, liver, and spleen tissues were collected, homogenized, and extracted with acetonitrile following established guidelines (Kapetanovic et al, 2006). Calibration curves were made with 0, 1, 10, 100, and 1,000 ng/ml GHF-201 in 1 mg/ml solutions of 4-tert-butyl-2-(4H-1,2,4-triazol-4-yl) phenol (ChemBridge) as internal standard (IS). Tissue samples were then dissolved in 1 mg/ml IS solutions and spiked with 0-1,000 ng/ml GHF-201 to generate standard curves from which tissue levels of GHF201 were determined. Samples were analyzed by the LC-MS/MS Sciex Triple Quad™ 5500 mass spectrometer.
Gbeys/ys mice injected subcutaneously with 250 mg/kg GHF-201 were sacrificed 30, 60, 90, and 210 min post injection, and the indicated tissues were removed, as well as 100 μL of serum drawn. […] Results obtained from n=3 mice at each time point.
The distribution and kinetic parameters of GHF-201 was assessed in different tissues.

mice = experiment: 14-day safety study in mice; format: in vivo; settings: 14-day study
Procedure: Pharmacokinetically, subcutaneously injected in mice, compound GHF-201 had high dwell time and persistence (>3 h) in the liver, intermediate levels and persistence in brain and heart (1 h) and negligible distribution to the muscle. […] The ameliorative effect on extension reflex is especially important since the patient correlate is pyramidal tetraparesis or upper motor neuron signs which are one of the main neurological deficiencies in APBD patients.

[3] = Pharmacokinetics, 3-day oral dose escalation study in APBD patients; format: in vivo, human; settings: for Cmax: human, plasma, oral, 340 mg, per os in formulation LDS-C, 170, 255, 340 mg on days 1, 2, 3
Procedure: as §1
Blood was drawn during three consecutive days according to the following regime—pre-administration and 0.5 h, 1 h. 1.5 h, 2 h, and 4 h post-administration. Compound GHF-201 was administered as formulation LDS-C. 7.15% Compound GHF-201. Active ingredient doses were 170 mg on the first day, 255 mg on the second day, and 340 mg on the third day.
Following blood drawing, plasma was separated by centrifugation (up to 1 h from drawing) at 2000 g for 10 min. at 4° C. Compound GHF-201 levels in plasma (supernatant) samples were determined by LC-Mass Spectrometry (LC-MS/MS) using Sciex Triple Quad™ 5500 mass spectrometer. 100 μl of plasma were collected and extracted in 500 μl acetonitrile solution (acetonitrile/water 1:1 v/v). Calibration curves were made with 0.1, 10, 100, and 1000 ng/ml compound GHF-201 in 1 mg/ml solutions of 4-tert-butyl-2-(4H-1,2,4-triazol-4-yl) phenol (ChemBridge) as internal standard (IS). The samples were dissolved in 1 mg/ml IS solutions and spiked with 0-1000 ng/ml of compound GHF-201 to generate standard curves from which plasma levels of compound GHF-201 were determined.

[4] = subcutaneously injected in mice

## COCCN(Cc1sccc1C)C(=O)c1cc(C)[nH]c(=O)c1 [Compound GHF-201]
[1]; intravenous, 250 mg/kg, FDA human equivalent dose calculation
  Human-equivalent Cmax (mouse Cmax divided by 12): 392 ng/mL
[1]; mouse, APBD modeling mice, IV 250 mg/kg
  Cmax: 4700 ng/mL
[2]; orally administered in formulation vs subcutaneous injections of GHF-201 in solution, APBD model mice
  bioavailability increase in all tissues: at least three-fold
[2]; [4]
  distribution to the muscle: negligible
  dwell time and persistence in the liver: > 3 h
  persistence in brain and heart: 1 h
mice
  safety: safe
[3]; patient 1
  Cmax: 894 ng/mL
[3]; patient 2
  Cmax: 883 ng/mL
[3]; patients 1 and 2, sum of trapezoids
  Areas Under the Curve (AUC): correlated with the level of compound GHF-201 administered
[3]; patients, three consecutive days
  pre-administration levels in the plasma: increased every consecutive day
